Data published in ChEMBL document CHEMBL5465560, “Selectivity Literature for EUbOPEN Chemogenomic Library” (2024).
Each block holds one compound with its values, some of them ahead of it.

Key:
[1] = test system: T1, Receptor-type tyrosine-protein kinase FLT3 (Homo sapiens), P36888 [D835H]; conditions: at 10 µM
T1 sequence (whole entry): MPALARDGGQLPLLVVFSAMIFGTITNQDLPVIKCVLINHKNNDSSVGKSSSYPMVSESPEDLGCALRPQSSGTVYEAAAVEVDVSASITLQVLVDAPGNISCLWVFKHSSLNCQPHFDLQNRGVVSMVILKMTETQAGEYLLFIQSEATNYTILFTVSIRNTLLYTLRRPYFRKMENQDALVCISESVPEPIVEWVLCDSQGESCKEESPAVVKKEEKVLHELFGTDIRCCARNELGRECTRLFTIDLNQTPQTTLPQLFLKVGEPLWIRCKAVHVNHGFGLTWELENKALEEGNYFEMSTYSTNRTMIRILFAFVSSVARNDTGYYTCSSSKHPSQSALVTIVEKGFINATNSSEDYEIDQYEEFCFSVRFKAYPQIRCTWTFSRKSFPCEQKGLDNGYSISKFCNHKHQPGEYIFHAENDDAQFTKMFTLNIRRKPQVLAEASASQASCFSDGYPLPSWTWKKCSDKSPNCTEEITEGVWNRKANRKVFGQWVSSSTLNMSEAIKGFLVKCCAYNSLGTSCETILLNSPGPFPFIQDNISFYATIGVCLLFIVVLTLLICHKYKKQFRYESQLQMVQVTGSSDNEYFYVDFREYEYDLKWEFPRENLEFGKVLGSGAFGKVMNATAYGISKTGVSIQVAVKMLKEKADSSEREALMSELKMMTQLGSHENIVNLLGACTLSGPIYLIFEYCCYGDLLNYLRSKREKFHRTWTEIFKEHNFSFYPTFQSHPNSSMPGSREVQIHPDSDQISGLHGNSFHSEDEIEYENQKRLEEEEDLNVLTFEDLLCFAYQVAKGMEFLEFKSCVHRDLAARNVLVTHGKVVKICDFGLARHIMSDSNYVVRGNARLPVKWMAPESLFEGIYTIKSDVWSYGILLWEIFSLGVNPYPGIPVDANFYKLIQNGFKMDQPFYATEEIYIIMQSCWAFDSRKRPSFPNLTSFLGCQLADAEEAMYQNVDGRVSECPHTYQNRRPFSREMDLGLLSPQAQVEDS

[2] = target: Serine/threonine-protein kinase PAK 6 (Homo sapiens) (UniProt Q9NQU5); conditions: at 10 µM
Chain of Serine/threonine-protein kinase PAK 6 (Homo sapiens) (Q9NQU5 whole entry, looked up): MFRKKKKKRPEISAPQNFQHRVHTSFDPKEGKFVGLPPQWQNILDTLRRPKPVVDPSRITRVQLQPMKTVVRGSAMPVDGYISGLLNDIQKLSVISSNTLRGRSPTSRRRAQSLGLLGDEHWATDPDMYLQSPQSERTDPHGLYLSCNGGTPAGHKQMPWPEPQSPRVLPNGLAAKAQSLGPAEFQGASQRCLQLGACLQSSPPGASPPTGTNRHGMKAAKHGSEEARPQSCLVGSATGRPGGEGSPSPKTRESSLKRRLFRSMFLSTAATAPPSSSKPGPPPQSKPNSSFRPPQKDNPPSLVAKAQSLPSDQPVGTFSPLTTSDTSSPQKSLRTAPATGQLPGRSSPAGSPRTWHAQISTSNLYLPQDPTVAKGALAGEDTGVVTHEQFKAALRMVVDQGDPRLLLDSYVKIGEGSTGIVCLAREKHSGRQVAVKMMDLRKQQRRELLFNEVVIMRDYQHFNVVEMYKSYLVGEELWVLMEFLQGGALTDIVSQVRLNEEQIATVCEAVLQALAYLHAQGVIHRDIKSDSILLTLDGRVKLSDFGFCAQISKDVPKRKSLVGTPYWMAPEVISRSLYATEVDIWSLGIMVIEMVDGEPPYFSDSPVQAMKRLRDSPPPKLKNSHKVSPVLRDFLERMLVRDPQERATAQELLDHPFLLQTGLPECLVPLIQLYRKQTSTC

[3] = target: Serine/threonine-protein kinase Nek4 (Homo sapiens) (UniProt P51957); test: Selectivity interaction (KinomeScan (DiscoverX)) EUB0001079a NEK4; conditions: at 1 µM
Chain of Serine/threonine-protein kinase Nek4 (Homo sapiens) (P51957 whole entry, looked up): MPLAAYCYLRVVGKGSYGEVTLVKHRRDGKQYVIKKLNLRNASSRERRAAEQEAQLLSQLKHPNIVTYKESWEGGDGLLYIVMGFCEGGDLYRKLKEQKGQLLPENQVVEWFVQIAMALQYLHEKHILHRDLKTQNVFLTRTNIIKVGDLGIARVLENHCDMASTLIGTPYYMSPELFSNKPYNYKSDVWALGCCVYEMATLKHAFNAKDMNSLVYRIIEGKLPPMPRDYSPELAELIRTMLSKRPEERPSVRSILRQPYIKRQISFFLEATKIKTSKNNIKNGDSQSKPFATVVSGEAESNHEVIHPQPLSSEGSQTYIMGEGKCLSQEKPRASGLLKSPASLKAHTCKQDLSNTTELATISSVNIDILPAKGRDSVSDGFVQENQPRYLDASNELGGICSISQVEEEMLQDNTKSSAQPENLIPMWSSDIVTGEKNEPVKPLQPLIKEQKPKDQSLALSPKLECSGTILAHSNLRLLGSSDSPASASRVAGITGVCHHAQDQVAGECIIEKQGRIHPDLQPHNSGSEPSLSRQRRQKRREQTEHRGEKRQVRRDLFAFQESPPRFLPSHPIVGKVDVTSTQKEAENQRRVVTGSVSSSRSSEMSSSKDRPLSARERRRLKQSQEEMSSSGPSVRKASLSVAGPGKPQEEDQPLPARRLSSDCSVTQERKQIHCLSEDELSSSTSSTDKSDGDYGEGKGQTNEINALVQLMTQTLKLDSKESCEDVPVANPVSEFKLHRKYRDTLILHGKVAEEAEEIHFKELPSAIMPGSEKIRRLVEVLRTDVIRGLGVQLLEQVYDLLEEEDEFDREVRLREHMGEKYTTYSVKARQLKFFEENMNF

[4] = target: STE20-like serine/threonine-protein kinase (Homo sapiens, UniProt Q9H2G2); test: Selectivity interaction (KinomeScan (DiscoverX)) EUB0000045b SLK
Chain of STE20-like serine/threonine-protein kinase (Q9H2G2 whole entry, looked up): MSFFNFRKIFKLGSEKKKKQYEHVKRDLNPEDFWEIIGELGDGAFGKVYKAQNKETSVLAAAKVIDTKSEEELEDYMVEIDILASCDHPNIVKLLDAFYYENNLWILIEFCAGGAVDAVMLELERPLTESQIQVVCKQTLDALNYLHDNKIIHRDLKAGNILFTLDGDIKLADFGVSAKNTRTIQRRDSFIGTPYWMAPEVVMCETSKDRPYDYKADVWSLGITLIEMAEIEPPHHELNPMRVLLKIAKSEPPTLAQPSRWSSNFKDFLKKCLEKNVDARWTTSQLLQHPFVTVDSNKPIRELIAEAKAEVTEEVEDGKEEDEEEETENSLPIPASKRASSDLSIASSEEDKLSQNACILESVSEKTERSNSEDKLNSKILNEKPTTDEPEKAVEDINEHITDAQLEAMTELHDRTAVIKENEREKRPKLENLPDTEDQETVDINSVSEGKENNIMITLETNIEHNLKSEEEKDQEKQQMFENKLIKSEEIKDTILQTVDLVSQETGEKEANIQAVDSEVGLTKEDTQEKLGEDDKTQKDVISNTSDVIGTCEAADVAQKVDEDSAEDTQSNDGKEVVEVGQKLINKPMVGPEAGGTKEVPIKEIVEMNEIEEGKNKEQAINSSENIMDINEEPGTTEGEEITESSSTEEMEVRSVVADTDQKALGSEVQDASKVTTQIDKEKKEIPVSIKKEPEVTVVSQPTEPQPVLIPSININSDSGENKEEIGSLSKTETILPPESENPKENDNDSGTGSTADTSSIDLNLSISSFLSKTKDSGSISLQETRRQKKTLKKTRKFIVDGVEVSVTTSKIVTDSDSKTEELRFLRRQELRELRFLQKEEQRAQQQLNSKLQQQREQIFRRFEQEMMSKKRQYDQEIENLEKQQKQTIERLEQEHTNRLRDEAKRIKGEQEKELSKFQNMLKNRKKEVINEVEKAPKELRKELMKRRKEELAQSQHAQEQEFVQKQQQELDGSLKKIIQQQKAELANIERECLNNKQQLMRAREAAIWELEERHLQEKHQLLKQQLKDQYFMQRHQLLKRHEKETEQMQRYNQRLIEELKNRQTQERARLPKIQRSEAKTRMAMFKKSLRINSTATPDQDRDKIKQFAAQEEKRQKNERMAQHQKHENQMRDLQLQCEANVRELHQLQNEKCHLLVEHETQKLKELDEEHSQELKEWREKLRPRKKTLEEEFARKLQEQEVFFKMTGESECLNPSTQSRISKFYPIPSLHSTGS

[5] = target: Tyrosine-protein kinase Fer (Homo sapiens) (UniProt P16591); test: Selectivity interaction (Upstate Kinase Profiler service (Millipore)) EUB0000056c FER; conditions: at 1 µM
[6] = target: Ribosomal protein S6 kinase alpha-6 (Homo sapiens, UniProt Q9UK32); test: Selectivity interaction (Upstate Kinase Profiler service (Millipore)) EUB0000056c RPS6KA6; conditions: at 1 µM
Chain of Ribosomal protein S6 kinase alpha-6 (Q9UK32 whole entry): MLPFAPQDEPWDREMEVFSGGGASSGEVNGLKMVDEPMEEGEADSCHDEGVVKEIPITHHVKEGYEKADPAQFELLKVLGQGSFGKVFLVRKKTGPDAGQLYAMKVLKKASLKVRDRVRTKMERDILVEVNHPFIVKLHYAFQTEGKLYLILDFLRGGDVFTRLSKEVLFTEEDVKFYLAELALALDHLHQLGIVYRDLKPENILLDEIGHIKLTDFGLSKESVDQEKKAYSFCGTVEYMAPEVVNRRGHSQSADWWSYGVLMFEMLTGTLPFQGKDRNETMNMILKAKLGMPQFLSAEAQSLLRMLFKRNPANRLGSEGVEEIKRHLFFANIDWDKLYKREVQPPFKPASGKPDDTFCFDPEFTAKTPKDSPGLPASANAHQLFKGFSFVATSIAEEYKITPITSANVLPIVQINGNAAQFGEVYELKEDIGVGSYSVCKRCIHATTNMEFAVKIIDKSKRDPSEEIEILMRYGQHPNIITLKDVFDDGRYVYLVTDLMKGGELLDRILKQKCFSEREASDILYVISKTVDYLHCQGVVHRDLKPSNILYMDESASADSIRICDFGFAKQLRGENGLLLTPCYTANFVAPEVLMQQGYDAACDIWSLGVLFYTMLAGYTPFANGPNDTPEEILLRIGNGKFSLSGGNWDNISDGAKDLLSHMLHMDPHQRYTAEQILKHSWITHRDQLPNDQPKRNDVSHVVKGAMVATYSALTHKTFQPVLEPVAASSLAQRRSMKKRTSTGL

[7] = target: T2, cGMP-dependent protein kinase 2 (Homo sapiens) (UniProt Q13237); test: Selectivity interaction (ProQinase) EUB0000171b PRKG2
T2 sequence (whole entry): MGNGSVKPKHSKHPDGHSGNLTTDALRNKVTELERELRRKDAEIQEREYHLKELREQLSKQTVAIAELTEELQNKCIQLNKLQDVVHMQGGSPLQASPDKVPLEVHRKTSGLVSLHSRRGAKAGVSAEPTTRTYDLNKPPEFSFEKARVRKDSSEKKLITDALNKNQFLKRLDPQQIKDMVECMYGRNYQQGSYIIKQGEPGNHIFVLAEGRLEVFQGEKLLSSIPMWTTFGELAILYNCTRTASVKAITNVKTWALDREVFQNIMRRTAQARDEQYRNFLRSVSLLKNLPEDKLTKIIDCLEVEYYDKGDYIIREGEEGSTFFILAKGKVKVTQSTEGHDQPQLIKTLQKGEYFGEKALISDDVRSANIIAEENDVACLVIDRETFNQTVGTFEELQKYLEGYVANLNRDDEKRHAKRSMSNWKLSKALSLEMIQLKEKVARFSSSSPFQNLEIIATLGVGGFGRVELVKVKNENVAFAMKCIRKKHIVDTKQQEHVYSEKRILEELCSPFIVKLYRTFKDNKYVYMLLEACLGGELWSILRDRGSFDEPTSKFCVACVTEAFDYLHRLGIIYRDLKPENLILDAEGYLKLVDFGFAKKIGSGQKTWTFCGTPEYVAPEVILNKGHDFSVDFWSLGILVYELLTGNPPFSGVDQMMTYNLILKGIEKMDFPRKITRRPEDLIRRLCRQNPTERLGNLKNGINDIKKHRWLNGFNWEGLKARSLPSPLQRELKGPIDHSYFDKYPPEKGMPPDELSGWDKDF

[8] = target: Platelet-derived growth factor receptor alpha (Homo sapiens, UniProt P16234); test: Selectivity interaction (Kinase panel (33PanQinase(R) Activity Assay)) EUB0000877a PDGFRA
Chain of Platelet-derived growth factor receptor alpha (P16234 whole entry): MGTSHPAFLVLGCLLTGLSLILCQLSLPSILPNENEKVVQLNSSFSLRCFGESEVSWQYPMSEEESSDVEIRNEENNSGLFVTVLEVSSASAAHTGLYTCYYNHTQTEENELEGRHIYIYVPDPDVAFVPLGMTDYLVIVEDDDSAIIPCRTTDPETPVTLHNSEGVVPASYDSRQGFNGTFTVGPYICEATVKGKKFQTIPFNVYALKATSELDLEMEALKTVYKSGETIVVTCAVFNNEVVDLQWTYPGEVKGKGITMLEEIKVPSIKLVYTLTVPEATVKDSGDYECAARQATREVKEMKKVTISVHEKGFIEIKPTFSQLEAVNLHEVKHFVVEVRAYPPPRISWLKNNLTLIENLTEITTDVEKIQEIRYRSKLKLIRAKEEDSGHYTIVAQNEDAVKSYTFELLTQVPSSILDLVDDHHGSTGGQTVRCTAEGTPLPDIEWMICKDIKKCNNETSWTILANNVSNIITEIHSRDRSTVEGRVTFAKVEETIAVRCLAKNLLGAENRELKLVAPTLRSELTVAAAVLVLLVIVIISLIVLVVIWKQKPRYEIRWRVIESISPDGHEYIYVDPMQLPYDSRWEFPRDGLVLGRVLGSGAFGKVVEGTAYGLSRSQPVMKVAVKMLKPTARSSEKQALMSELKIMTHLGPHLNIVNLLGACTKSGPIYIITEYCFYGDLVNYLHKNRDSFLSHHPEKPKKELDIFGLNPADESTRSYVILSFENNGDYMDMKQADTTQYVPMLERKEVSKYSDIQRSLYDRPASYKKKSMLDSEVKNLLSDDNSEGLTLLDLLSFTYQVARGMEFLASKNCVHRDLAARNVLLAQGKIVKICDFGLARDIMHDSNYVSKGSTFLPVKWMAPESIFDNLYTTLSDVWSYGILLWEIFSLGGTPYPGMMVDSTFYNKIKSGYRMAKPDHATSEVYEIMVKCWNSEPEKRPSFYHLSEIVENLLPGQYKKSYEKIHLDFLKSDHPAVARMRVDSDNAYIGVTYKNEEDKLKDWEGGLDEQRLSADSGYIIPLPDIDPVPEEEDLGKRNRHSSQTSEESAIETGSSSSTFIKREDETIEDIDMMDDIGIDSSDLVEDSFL

Structure (SMILES): Nc1cnc(N2CCc3cc(S(=O)(=O)Nc4c(F)cc(Cl)cc4F)cc(N4CCCC4=O)c32)nc1 [TP-020n]
% of control [3]: 97%

Structure (SMILES): C=CC(=O)Nc1cc(-n2c(=O)ccc3cnc4ccc(-c5ccc(NS(C)(=O)=O)cc5)cc4c32)ccc1C
% of control ([4]; at 1 µM): 59%
% of control ([4]; at 10 µM): 100%

Further lines, results first:

% of control [1]: 100%
% of control [2]: 100%
Structure (SMILES): CCN(CC)CCCCNc1ncc2cc(-c3cc(OC)cc(OC)c3)c(NC(=O)NC(C)(C)C)nc2n1

% of inhibition [5]: 11%
% of inhibition [6]: 38%
Structure (SMILES): Cc1ccc(-c2ccc3c(ccc4sc5c(c43)NC[C@@H](C)NC5=O)n2)cn1

% of control ([7]; at 1 µM): 84%
% of control ([7]; at 5 µM): 81%
Structure (SMILES): C=CC(=O)Nc1cccc(C(=O)Nc2ccc(Nc3cc(-c4[nH]c(SC)nc4C)ccn3)cc2)c1

IC50 [8]: > 10 µM
Structure (SMILES): CCC(=O)N1CC[C@H](Nc2ncnc3c2CN(c2cnc(OC)c(C(F)(F)F)c2)CC3)C1 [LENIOLISIB]
